Assay results published in patent US20150322033A1, “ANTIBACTERIAL AGENT” (priority 2012, published 2015).
≈ marks a conversion by molar mass, not a printed value. Like-named read-outs stand apart in the source and are kept apart here.

Experiments:
S. aureus Mu50 NR1-1 = assay: MIC by broth microdilution, S. aureus Mu50 NR1-1; assay type: cell-based; details: Staphylococcus aureus, MU50NR11; Example 3, Table 13; read-out: MIC (mg/L) Mu50 NR1-1 (S80F, w)
Experimental: MIC values of the flavones and quinolone for the strains were measured in the same manners as those of Example 1, except that S. aureus Mu50 NR-1 was also used as Staphylococcus aureus in addition to S. aureus FDA209P and S. aureus Mu50, cell suspensions of the strains were prepared.
S. aureus Mu50 NR1-1 mentioned in Table 13 is a strain selected stepwise from the clinically isolated S. aureus Mu50 strain with deoxynybomycin, and it has a topoisomerase IV encoded by parC in which a […] (see, Hiramatsu K. et al., J. Antimicrob. Agents, 2012, June; 39 (6), 478-85).
In Table 13, the descriptions in the parentheses after the strains indicate the mutated amino acid residue and its position, as represented by (the mutation of topoisomerase IV resulting from the mutation of parCand the mutation of DNA gyrase resulting from the mutation of gyrA). The character “w” means wild-type, representing without mutation.

[1] = system: S. aureus FDA209P (ATCC 6538P); assay: microbe, parasite or virus in culture; assay type: cell-based, Staphylococcus aureus; details: Staphylococcus aureus
Summary of the method: (§1)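 Overnight TSB cultures at 37 °C adjusted to A578 0.3, diluted 500-fold in CAMHB and mixed 1:1 with compound in CAMHB; static overnight incubation at 37 °C. MIC reported in mg/L; Mu50 NR-1 also tested in some runs.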

S. aureus Mu50 = assay: microbe, parasite or virus in culture; assay type: cell-based, Staphylococcus aureus; details: for MIC ratio: (MIC value for S. aureus FDA209P)/(MIC value for S. aureus Mu50); for MIC: Staphylococcus aureus
Summary of the method: as §1

[2] = system: levofloxacin-susceptible Staphylococcus aureus strain MS5935-1; assay: Emergence frequency of levofloxacin-resistant Staphylococcus aureus on agar plate medium; assay type: cell-based; details: for Emergence frequency of levofloxacin resistance mutation (mutations/genera): FALCOR
Description: Emergence frequency of levofloxacin-resistant Staphylococcus aureus was examined in the presence or absence of apigenin by using a levofloxacin-susceptible Staphylococcus aureus strain according to the following method.
(§2) The levofloxacin-susceptible Staphylococcus aureus strain MS5935-1 (strain in which the 80th serine residue from the amino terminus of the wild-type topoisomerase IV encoded by parC is mutated with phenylalanine residue, see, Hiramatsu K., Igarashi M., Morimoto Y, Baba T., Umekita M., Akamatsu Y., Int. J. Antimicrob. Agents, 2012 June; 39(6), 478-85) was cultured overnight at 37° C. with shaking in 4 mL of TBS (produced by Dickinson). After completion of the culture, the cells were suspended in fresh TBS, and the cell suspension was adjusted to have an absorbance of 0.3 measured at 578 nm. Then, the cell suspension was diluted 10,000 times with TBS. This diluted cell suspension was inoculated (0.1 mL each) into ten test tubes containing 4 mL each of TBS, and preculture was carried out overnight at 37° C.
Levofloxacin was dissolved in sterilized water at a concentration of 40 mg/L. This solution of levofloxacin was added on plates in a volume of 1 mL/plate, and 9 mL of M-H (Mueller Hinton) Agar (produced by Becton, Dickinson and Company) was added to each plate. Five of such plates were prepared. […]
Number of the colonies formed on each agar plate medium after the culture of 2 days was counted. The emergence frequency of levofloxacin-resistant Staphylococcus aureus was calculated according to the following equation using the number of colonies and the number of bacterial cells inoculated onto each agar plate medium (CFU, colony forming unit). Further, from the calculated emergence frequency of the levofloxacin-resistant Staphylococcus aureus, emergence frequency of levofloxacin resistance mutation and 95% confidence interval (CI range) were calculated by using FALCOR (Fluctuation AnaLysis CalculatOR, http://www.keshaysingh.org/protocols/FALCOR.html, see, Hall B. M. et al., Bioinformatics., 2009, 25(12), 1564-5). […]

S. aureus MS5935-1 = assay: MIC for S. aureus MS5935-1; assay type: cell-based; details: Staphylococcus aureus, MS59351
Experimental: as §2

[3] = Example 2, Table 12, read-out: MIC (mg/L) S. aureus FDA209P
[4] = Example 3, Table 13, read-out: MIC (mg/L) FDA209P (w, w)
[5] = MU50, read-out: MIC (mg/L) S. aureus Mu50, Example 2, Table 12
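Wherever MIC ratio is given: ratio is FDA209P MIC divided by Mu50 MIC.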

| Structure (SMILES) | MIC (S. aureus Mu50 NR1-1) [mg/L] | MIC [1, 3] [mg/L] | MIC [1, 4] [mg/L] | MIC ratio (S. aureus Mu50) | MIC (S. aureus Mu50; [5]) [mg/L] | Emergence frequency of levofloxacin resistance mutation (mutations/genera) ([2]; agar plate medium with LVFX 4 mg/L, apigenin 0) | MIC (S. aureus MS5935-1) [µg/mL] | MIC ([1]; Example 1, Tables 1 to 10, read-out: MIC (mg/L) FDA209P) [mg/L] | MIC ratio (S. aureus Mu50; listed as apigenin) | MIC (S. aureus Mu50; MU50, read-out: MIC (mg/L) Mu50, Example 1, Tables 1 to 10) [mg/L] | Emergence frequency of levofloxacin resistance mutation, medium with levofloxacin and apigenin / medium with levofloxacin ([2]; LVFX 4 mg/L, apigenin 32 mg/L) | Emergence frequency of levofloxacin resistance mutation (mutations/genera) ([2]; agar plate medium with LVFX 4 mg/L and apigenin 32 mg/L) |
| --- | --- | --- | --- | --- | --- | --- | --- | --- | --- | --- | --- | --- |
| C[C@H]1COc2c(N3CCN(C)CC3)c(F)cc3c(=O)c(C(=O)O)cn1c23 [Levofloxacin, levofloxacin, reference compound] | 1 (≈ 2.77 µM) | 0.125 (≈ 0.346 µM) | 0.125 (≈ 0.346 µM) | 0.016 | 8 (≈ 22.1 µM) | 1.45 × 10^−9 mutations/genera | 0.5 (≈ 1.38 µM) | – | – | – | – | – |
| O=c1cc(-c2ccc(O)cc2)oc2cc(O)cc(O)c12 [No. 7, 4′,5,7-Trihydroxyflavone] | > 128 | > 128 | > 128 | >32 | 4 (≈ 14.8 µM) | – | > 128 | > 128 | ≥ 32 | 4 (≈ 14.8 µM) | 1/29 | 0.05 × 10^−9 mutations/genera |
